Measurements: patent US8247211B2, “Glycopeptide antibiotics” (American Cyanamid Company, priority 2001, dated 2012)
Converted amounts (≈) assume the structure as drawn. Numbered stars: 1 amine (or outer) side, 2 acyl side, 3 side chain; on linkers, the order of the positions; unused ones are H or OH. Square brackets hold non-standard residues; d marks the D form. Peptide text beside a SMILES is read from it. ξ: configuration not given here. X1 = N=C1NCC(C(O)C(N[*:1])C(=O)[*:2])N1C1OC(CO)C(O)C(O)C1O; ξEnduracididine(βξ-OH,4'ξ) = N=C1NCC(C(O)C(N)C(=O)O)N1; Tyr(3,5-Br2) = N[CH](Cc1cc(Br)c(O)c(Br)c1)C(=O)O; ξPhe(βξ-Me) = CC(c1ccccc1)C(N)C(=O)O

What was measured:
Assay in all cases: In vitro antibacterial evaluation: minimum inhibitory concentration (MIC), broth dilution method
Type in all cases: cell-based
Escherichia coli [1] = conditions: broth dilution, 18 hours at 35° C.
Staphylococcus sp. = conditions: 18 hours at 35° C.
How it was run: (§1)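 NCCLS M7-A2 broth dilution with Mueller-Hinton II, testing 64-0.06 μg/mL antibiotic against 5×10^5 CFU/mL inocula. Test strains include recent methicillin-, penicillin- or vancomycin-resistant clinical isolates. MIC is the lowest concentration preventing growth.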

Escherichia coli [2] = conditions: 18 hours at 35° C.
How it was run: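 Broth dilution per NCCLS M7-A2 in Muller-Hinton II […], inoculum 5×10^5 CFU/mL, antibiotic tested over 64-0.06 μg/mL. MIC is taken as the lowest concentration that inhibits growth. Panel includes recent clinical isolates resistant to methicillin, penicillin and/or vancomycin.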

Streptococcus sp. = conditions: 18 hours at 35° C.
How it was run: as §1

Enterococcus sp. = conditions: 18 hours at 35° C.
How it was run: as §1

With CC(c1ccccc1)C1NC(=O)CNC(=O)C(CO)NC(=O)C(C(O)C2CNC(=N)N2C2OC(CO)C(O)C(O)C2O)NC(=O)C(C(O)C2CNC(=N)N2)NC(=O)C(Cc2cc(Br)c(O)c(Br)c2)NC1=O (stereo not drawn) [Example 3, Cyclo[glycyl-β-methylphenylalanyl-3,5-dibromotyrosyl-3-(2-iminoimidazolidin-4-yl)seryl-3-(3-hexopyranosyl-2-iminoimidazolidin-4-yl)serylseryl]] (cyclo(G[ξPhe(βξ-Me)][Tyr(3,5-Br2)][ξEnduracididine(βξ-OH,4'ξ)][X1]S); configuration not given here) the “MIC Escherichia coli (GC 4560)” value (Escherichia coli [1]) was 64 µg/mL (≈ 56.7 µM).
With “γ-O-[(Heptylamino)carbonyl]-cyclo[glycyl-β-methylphenylalanyl-O-(4-O-hexopyranosylhexopyranosyl)tyrosyl-3-(2-iminoimidazolidin-4-yl)seryl-3-(3-hexopyranosyl-2-iminoimidazolidin-4-yl)serylseryl] [Example 253b]” the “MIC Coagulase Negative Staphylococcus (GC 4547)” value (Staphylococcus sp.; Coagulase Negative Staphylococcus (GC 4547)) was 4 µg/mL, the “MIC Coagulase Negative Staphylococcus (GC 4548)” value (Staphylococcus sp.; Coagulase Negative Staphylococcus (GC 4548)) was 2 µg/mL and the “MIC Coagulase Negative Staphylococcus (GC 4549)” value (Staphylococcus sp.; Coagulase Negative Staphylococcus (GC 4549)) was 2 µg/mL. The “MIC Coagulase Negative Staphylococcus (GC 4551)” value (Staphylococcus sp.; Coagulase Negative Staphylococcus (GC 4551)) was 4 µg/mL, the “MIC Coagulase Negative Staphylococcus (GC 6257)” value (Staphylococcus sp.; Coagulase Negative Staphylococcus (GC 6257)) was 2 µg/mL and the “MIC Staphylococcus aureus (ATCC 29213)” value (Staphylococcus sp.; Staphylococcus aureus (ATCC 29213)) was 4 µg/mL. For the same molecule, the “MIC Staphylococcus aureus (GC 1131)” value (Staphylococcus sp.; Staphylococcus aureus (GC 1131)) was 4 µg/mL, the “MIC Staphylococcus aureus (GC 3051)” value (Staphylococcus sp.; Staphylococcus aureus (GC 3051)) was 2 µg/mL and the “MIC Staphylococcus aureus (GC 3053)” value (Staphylococcus sp.; Staphylococcus aureus (GC 3053)) was 8 µg/mL. The “MIC Staphylococcus aureus (GC 4541)” value (Staphylococcus sp.; Staphylococcus aureus (GC 4541)) was 2 µg/mL, the “MIC Staphylococcus aureus (GC 4542)” value (Staphylococcus sp.; Staphylococcus aureus (GC 4542)) was 4 µg/mL and the “MIC Staphylococcus aureus (GC 4544)” value (Staphylococcus sp.; Staphylococcus aureus (GC 4544)) was 4 µg/mL. The “MIC Staphylococcus aureus (GC 4545)” value (Staphylococcus sp.; Staphylococcus aureus (GC 4545)) was 2 µg/mL, the “MIC Staphylococcus aureus-SMITH (GC 4543)” value (Staphylococcus sp.; Staphylococcus aureus-SMITH (GC 4543)) was 2 µg/mL and the “MIC Staphylococcus haemolyticus (GC 4546)” value (Staphylococcus sp.; Staphylococcus haemolyticus (GC 4546)) was 2 µg/mL. The “MIC Staphylococcus aureus (ATCC 29213)” value (Staphylococcus sp.; broth dilution, strain ATCC 29213) was 4 µg/mL, the “MIC Staphylococcus aureus (GC 1131)” value (Staphylococcus sp.; broth dilution, strain GC 1131) was 4 µg/mL and the “MIC Staphylococcus aureus (GC 3051)” value (Staphylococcus sp.; broth dilution, strain GC 3051) was 2 µg/mL. The “MIC Staphylococcus aureus (GC 3053)” value (Staphylococcus sp.; broth dilution, strain GC 3053) was 8 µg/mL, the “MIC Staphylococcus aureus (GC 4541)” value (Staphylococcus sp.; broth dilution, strain GC 4541) was 2 µg/mL and the “MIC Staphylococcus aureus (GC 4542)” value (Staphylococcus sp.; broth dilution, strain GC 4542) was 4 µg/mL. The “MIC Staphylococcus aureus-SMITH (GC 4543)” value (Staphylococcus sp.; broth dilution, strain GC 4543) was 2 µg/mL, the “MIC Staphylococcus aureus (GC 4544)” value (Staphylococcus sp.; broth dilution, strain GC 4544) was 4 µg/mL and the “MIC Staphylococcus aureus (GC 4545)” value (Staphylococcus sp.; broth dilution, strain GC 4545) was 2 µg/mL. The “MIC Staphylococcus haemolyticus (GC 4546)” value (Staphylococcus sp.; broth dilution, strain GC 4546) was 2 µg/mL, the “MIC Coagulase Negative Staphylococcus (GC 4547)” value (Staphylococcus sp.; broth dilution, strain GC 4547) was 4 µg/mL and the “MIC Coagulase Negative Staphylococcus (GC 4548)” value (Staphylococcus sp.; broth dilution, strain GC 4548) was 2 µg/mL. For the same molecule, the “MIC Coagulase Negative Staphylococcus (GC 4549)” value (Staphylococcus sp.; broth dilution, strain GC 4549) was 2 µg/mL, the “MIC Coagulase Negative Staphylococcus (GC 4551)” value (Staphylococcus sp.; broth dilution, strain GC 4551) was 4 µg/mL and the “MIC Coagulase Negative Staphylococcus (GC 6257)” value (Staphylococcus sp.; broth dilution, strain GC 6257) was 2 µg/mL. The “MIC Escherichia coli (ATCC 25922)” value (Escherichia coli [2]; Escherichia coli (ATCC 25922)) was 64 µg/mL, the “MIC Escherichia coli (GC 4559)” value (Escherichia coli [2]; Escherichia coli (GC 4559)) was 64 µg/mL and the “MIC Escherichia coli (GC 4560)” value (Escherichia coli [2]; Escherichia coli (GC 4560)) was 2 µg/mL. The “MIC Streptococcus agalactiae (GC 4564)” value (Streptococcus sp.; Streptococcus agalactiae (GC 4564)) was 1 µg/mL, the “MIC Streptococcus pneumoniae (ATCC 6301)” value (Streptococcus sp.; Streptococcus pneumoniae (ATCC 6301)) was 0.25 µg/mL and the “MIC Streptococcus pneumoniae (GC 1894)” value (Streptococcus sp.; Streptococcus pneumoniae (GC 1894)) was less than 0.06 µg/mL. For the same molecule, the “MIC Streptococcus pneumoniae (GC 4565)” value (Streptococcus sp.; Streptococcus pneumoniae (GC 4565)) was 0.25 µg/mL, the “MIC Streptococcus pyogenes (GC 4563)” value (Streptococcus sp.; Streptococcus pyogenes (GC 4563)) was 1 µg/mL and the “MIC Streptococcus pneumoniae (ATCC 6301)” value (Streptococcus sp.; broth dilution, strain ATCC 6301) was 0.25 µg/mL. The “MIC Streptococcus pneumoniae (GC 1894)” value (Streptococcus sp.; broth dilution, strain GC 1894) was less than 0.06 µg/mL, the “MIC Streptococcus pyogenes (GC 4563)” value (Streptococcus sp.; broth dilution, strain GC 4563) was 1 µg/mL and the “MIC Streptococcus agalactiae (GC 4564)” value (Streptococcus sp.; broth dilution, strain GC 4564) was 1 µg/mL. For the same molecule, the “MIC Streptococcus pneumoniae (GC 4565)” value (Streptococcus sp.; broth dilution, strain GC 4565) was 0.25 µg/mL, the “MIC Enterococcus avium (GC 4558)” value (Enterococcus sp.; Enterococcus avium (GC 4558)) was 8 µg/mL and the “MIC Enterococcus faecalis (ATCC 29212)” value (Enterococcus sp.; Enterococcus faecalis (ATCC 29212)) was 8 µg/mL. For the same molecule, the “MIC Enterococcus faecalis (GC 2242)” value (Enterococcus sp.; Enterococcus faecalis (GC 2242)) was 8 µg/mL, the “MIC Enterococcus faecalis (GC 2691)” value (Enterococcus sp.; Enterococcus faecalis (GC 2691)) was 8 µg/mL and the “MIC Enterococcus faecalis (GC 3059)” value (Enterococcus sp.; Enterococcus faecalis (GC 3059)) was 16 µg/mL. For the same molecule, the “MIC Enterococcus faecalis (GC 4552)” value (Enterococcus sp.; Enterococcus faecalis (GC 4552)) was 8 µg/mL, the “MIC Enterococcus faecalis (GC 4553)” value (Enterococcus sp.; Enterococcus faecalis (GC 4553)) was 8 µg/mL and the “MIC Enterococcus faecalis (GC 4554)” value (Enterococcus sp.; Enterococcus faecalis (GC 4554)) was 8 µg/mL. The “MIC Enterococcus faecalis (GC 6189)” value (Enterococcus sp.; Enterococcus faecalis (GC 6189)) was 8 µg/mL, the “MIC Enterococcus faecium (GC 2243)” value (Enterococcus sp.; Enterococcus faecium (GC 2243)) was 8 µg/mL and the “MIC Enterococcus faecium (GC 4556)” value (Enterococcus sp.; Enterococcus faecium (GC 4556)) was 8 µg/mL. The “MIC Enterococcus faecium (GC 4557)” value (Enterococcus sp.; Enterococcus faecium (GC 4557)) was 4 µg/mL, the “MIC Enterococcus faecalis (ATCC 29212)” value (Enterococcus sp.; broth dilution, strain ATCC 29212) was 8 µg/mL and the “MIC Enterococcus faecalis (GC 2242)” value (Enterococcus sp.; broth dilution, strain GC 2242) was 8 µg/mL. The “MIC Enterococcus faecium (GC 2243)” value (Enterococcus sp.; broth dilution, strain GC 2243) was 8 µg/mL, the “MIC Enterococcus faecalis (GC 2691)” value (Enterococcus sp.; broth dilution, strain GC 2691) was 8 µg/mL and the “MIC Enterococcus faecalis (GC 3059)” value (Enterococcus sp.; broth dilution, strain GC 3059) was 16 µg/mL. For the same molecule, the “MIC Enterococcus faecalis (GC 4552)” value (Enterococcus sp.; broth dilution, strain GC 4552) was 8 µg/mL, the “MIC Enterococcus faecalis (GC 4553)” value (Enterococcus sp.; broth dilution, strain GC 4553) was 8 µg/mL and the “MIC Enterococcus faecalis (GC 4554)” value (Enterococcus sp.; broth dilution, strain GC 4554) was 8 µg/mL. For the same molecule, the “MIC Enterococcus faecium (GC 4556)” value (Enterococcus sp.; broth dilution, strain GC 4556) was 8 µg/mL, the “MIC Enterococcus faecium (GC 4557)” value (Enterococcus sp.; broth dilution, strain GC 4557) was 4 µg/mL and the “MIC Enterococcus avium (GC 4558)” value (Enterococcus sp.; broth dilution, strain GC 4558) was 8 µg/mL. For the same molecule, the “MIC Enterococcus faecalis (GC 6189)” value (Enterococcus sp.; broth dilution, strain GC 6189) was 8 µg/mL.
